The values below come from patent publication US7291611B2, “Benzimidazolidinone derivatives as muscarinic agents” (ACADIA Pharmaceuticals Inc., priority 2001, dated 2007).

One data set addresses T1, M1 muscarinic receptor (Homo sapiens, UniProt P11229).
T1 construct: expressed in transfected cells; host or cells: NIH-3T3 cells (ATCC CRL 1658)
T1 sequence (P11229 1-460): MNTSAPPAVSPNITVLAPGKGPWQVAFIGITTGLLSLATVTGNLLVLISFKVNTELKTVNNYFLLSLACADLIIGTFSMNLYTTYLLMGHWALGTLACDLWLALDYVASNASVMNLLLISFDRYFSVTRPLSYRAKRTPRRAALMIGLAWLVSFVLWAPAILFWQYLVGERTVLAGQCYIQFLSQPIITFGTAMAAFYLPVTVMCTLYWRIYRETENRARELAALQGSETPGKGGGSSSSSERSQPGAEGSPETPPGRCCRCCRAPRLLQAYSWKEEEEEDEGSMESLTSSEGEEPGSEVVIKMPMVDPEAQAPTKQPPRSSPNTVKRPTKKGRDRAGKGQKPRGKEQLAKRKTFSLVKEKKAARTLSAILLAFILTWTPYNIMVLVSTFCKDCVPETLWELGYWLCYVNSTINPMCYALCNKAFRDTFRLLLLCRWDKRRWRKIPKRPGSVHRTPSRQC
Put plainly: R-SAT functional assay, muscarinic M1 receptor. It counts as cell-based. Conditions: for Emax: NIH3T3, relative to maximum response to carbachol, read-out: M1 % Efficacy; for Emax / EC50: R-SAT, transfected NIH-3T3 cells; for EC50: read-out: M1 pEC50 (converted). On the procedure: (§1) The M1 and M4 muscarinic receptor subtypes were cloned substantially as described by Bonner et al., (1987) Science […] p. 527 and Bonner et al, (1988) Neuron 1, p. 403. R-SAT assays were carried out substantially as described in U.S. Pat. No. 5,707,798 and by Braüner-Osbome, H. B. and Brann, M. R. (1995), Eur. J. Pharmacol. 295:93-102. NIH-3T3 cells (available from the American Type Culture Collection as ATCC CRL 1658) were transfected with plasmid DNA encoding the m1 and m4 receptors and plasmid DNA encoding β-galactosidase. Transfected cells were grown in the presence of between 1 nM and 40 μM of the test compound for 5 days. On day 5, the cells were lysed using 0.5% nonidet-P and β-galactosidase expression was quantified using the chromogenic substrate o-nitrophenyl-p-D-galactoside (ONGP).
(§2) Data were normalized relative to the maximum response of the cells to the muscarinic agonist carbachol, and the following equation was fitted to the data: response=minimum+(maximum−minimum)/(1+([ligand]/EC50)) % Efficacy was defined as (maximum−minimum)/(maximum response of cells to carbachol). pEC50=−log (EC50). Where data gave a bell-shaped curve, “maximum” was defined as the highest observed response.

The target in a further data set is T2, M4 muscarinic receptor (Homo sapiens, UniProt P08173).
T2 construct: expressed in transfected cells; host or cells: NIH-3T3 cells (ATCC CRL 1658)
T2 sequence (P08173 1-479): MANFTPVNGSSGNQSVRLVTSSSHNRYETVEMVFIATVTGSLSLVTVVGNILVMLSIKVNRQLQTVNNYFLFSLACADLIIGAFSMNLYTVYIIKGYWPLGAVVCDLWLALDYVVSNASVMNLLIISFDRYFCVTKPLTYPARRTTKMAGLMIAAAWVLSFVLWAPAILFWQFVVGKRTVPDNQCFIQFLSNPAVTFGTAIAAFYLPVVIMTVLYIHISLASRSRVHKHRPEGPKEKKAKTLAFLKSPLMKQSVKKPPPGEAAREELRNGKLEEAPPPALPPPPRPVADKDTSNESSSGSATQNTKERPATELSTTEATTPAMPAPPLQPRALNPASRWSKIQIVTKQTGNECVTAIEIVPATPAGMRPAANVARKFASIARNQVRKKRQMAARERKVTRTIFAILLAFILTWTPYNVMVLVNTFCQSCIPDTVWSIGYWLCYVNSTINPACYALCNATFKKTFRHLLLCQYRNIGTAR
In words: R-SAT functional assay, muscarinic M4 receptor. In kind it is cell-based. The settings on record: for Emax: NIH3T3, relative to maximum response to carbachol, read-out: M4 % Efficacy. The method, then:
as §1, §2

The target of data set [1] is T3, human dopamine D2 receptor (Homo sapiens, UniProt P14416).
T3 construct: expressed in transfected cells; host or cells: tSA cells
T3 sequence (P14416 1-414 isoform P14416-2): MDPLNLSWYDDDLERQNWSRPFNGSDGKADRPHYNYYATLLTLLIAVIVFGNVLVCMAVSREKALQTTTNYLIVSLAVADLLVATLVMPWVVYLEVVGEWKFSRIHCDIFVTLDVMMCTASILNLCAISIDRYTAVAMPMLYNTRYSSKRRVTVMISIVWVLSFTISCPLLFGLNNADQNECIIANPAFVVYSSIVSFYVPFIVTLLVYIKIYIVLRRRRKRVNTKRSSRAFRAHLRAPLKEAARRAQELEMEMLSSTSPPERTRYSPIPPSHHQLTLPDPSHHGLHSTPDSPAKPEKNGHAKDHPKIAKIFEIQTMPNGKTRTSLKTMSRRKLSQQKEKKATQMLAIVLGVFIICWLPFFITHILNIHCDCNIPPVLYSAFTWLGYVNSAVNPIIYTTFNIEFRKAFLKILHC
In words: [3H]-Spiperone radioligand binding to D2 receptor membranes. The settings on record: tSA cell membranes, 150 pM [3H]-Spiperone; read-out: D2 [3H]Spiperone pIC50 (converted). The method, then: The D2 dopamine receptor subtype was cloned substantially as described by Stormann, Gdula, Weiner and Brann, 1990 [Mol Pharmacol 37, 1-6]. Cell membranes expressing the D2 receptor were prepared by transfecting tSA cells (Chahine, M., Bennet, P. B., George, A. L., Horn, R. (1994) Pfluegers Arch. 427, 136-142) with 10 μg plasmid DNA encoding the human dopamine D2 receptor and 40 μl Superfect (Qiagen). The cells were harvested 48 hours and transfection and membranes were prepared by homogenizing the cells using a Polytron harvester in 20 mM Hepes, 10 mM EDTA, pH 7.4. The homogenate was centrifuged for 30 minutes at 37,000 g. The pellet was homogenized again in 60 ml 20 mM Hepes, 5 mM EDTA. The homogenate was centrifuged for 30 minutes at 37,000 g. The supernatant was discarded. The pellet was homogenized again in 10 ml 20 mM Hepes, 1 mM EDTA. The resultant membranes were frozen at −80° C.
The membranes were combined with 150 pM [^3H]-Spiperone (Amersham-Pharmacia, 107 Ci/mmol) and ligand concentrations between 1 nM and 10 μM, or haloperidol concentrations between 0.1 nM and 1 μM in 460 μl 20 mM Hepes, 1 mM EDTA, 0.1% (w/v) bovine serum albumin. Nonspecific binding was defined as binding in the presence of 1 μM haloperidol. The membranes were incubated for 4 hours at 37° C., and then filtered onto Packard GFB Filterplates using a Packard harvester. The membranes were dried and 50 μl Microscint (Packard) was added to each well. The amount of bound radioligand was quantified using a Packard Topcount scintillation counter.
Data were normalized relative to the maximum inhibition of [^3H]-Spiperone binding by 1 μM haloperidol, and the following equation was fitted to the data: % inhibition=minimum+(maximum−minimum)/(1+([ligand]/[IC50])) % inhibition was defined as (maximum−minimum)/(maximum response of cells to haloperidol). pIC50=−log (IC50). NT=not tested. Results

The test system of data set [2] is mice. Put plainly: Spontaneous locomotor activity in mice. It counts as in vivo. Conditions: 10 mg/kg i.p., mice (FIG. 1). The method, then: (§3) Male Non-Swiss Albino mice (Harlan Sprague-Dawley) were housed (4 mice/cage) in rooms with temperature and humidity controlled and water and food (Harlan Teklad) freely available. Mice were kept on a 12-hr light:dark cycle.
(§4) Plastic 20×20×30 cm activity cages were equipped with photocell beams (AccuScan Instruments). For spontaneous activity, 61KS19 (1, 3 and 10 mg/kg) was administered alone i.p. 30 min before the session. For hyperactivity experiments, mice were treated with 0.3 mg/kg dizocilpine, 3.0 mg/kg d-amphetamine or 3.0 mg/kg scopolamine i.p. 15 min before the session (15 min after 61KS19). Locomotor data were collected during a 15 min session without habituation in a lit room. Each dose combination was tested in a separate group of animals (n=8). Distance traveled (cm) was calculated and averaged followed by ANOVA and post-hoc Dunnett's t-test comparisons.

Data set [3] relates to mice. In words: Amphetamine-induced hyperactivity in mice. In kind it is in vivo. The settings on record: 3 and 10 mg/kg i.p., mice (FIG. 2). The method, then:
as §3, §4

The test system of data set [4] is mice. Put plainly: Scopolamine-induced hyperactivity in mice. It counts as in vivo. Conditions: 1, 3 and 10 mg/kg i.p., mice (FIG. 3). On the procedure: as §3, §4
The subject of data set [5] is mice. In words: MK-801 (dizocilpine)-induced hyperactivity in mice. In kind it is in vivo. Conditions: 10 mg/kg i.p., mice (FIG. 4). On the procedure:
as §3, §4

The subject of data set [6] is mice. In words: Catalepsy (rod test) in mice. In kind it is in vivo. Conditions: mice (FIG. 5). The method, then:
as §3
A custom-built 8-mm rod that is raised 3.5 cm from the lab benchtop was used. 61KS19 (10 mg/kg) or haloperidol (1 mg/kg) were administered i.p. 60 min before the start of the session. The forepaws of each animal is placed on the rod and the time to step down is measured. If the animal steps off immediately, another attempt is made until the animal stays on for more than 10 sec or 10 attempts have been made. A maximum of 2 min is allowed at which time the animal is taken away from the rod and returned to the homecage. Each dose or dose combination was tested in a separate group of animals (n=6). Averages and standard errors were calculated and compared using an ANOVA and post-hoc Dunnett's t-tests.

A further data set deals with dopamine receptors. Conditions: Shannon et al.; cited from earlier work.
For data set [7] the following is noted: human, in vivo; cited from earlier work.
The mark [8] stands for this setting: R-SAT, transfected NIH-3T3 cells.

The structures appear in SMILES notation.

With `CCCCC1CCN(CCCn2c(=O)[nH]c3ccccc32)CC1` [Compound 61KS-19, 1-(3-[4-Butylpiperidino]propyl)-1,3-dihydrobenzimidazol-2-one], on M1 muscarinic receptor, the “binding efficacy for the M1 receptor subtype” value was “high binding efficacy”, the Emax was found to be 115% and the EC50 was 25.1 nM. Further, the “binding efficacy for the M4 receptor subtype” value on M4 muscarinic receptor is listed as “high binding efficacy”. Also, the Emax on M4 muscarinic receptor (setting [8]) was 141%. The EC50 at M4 muscarinic receptor (R-SAT, transfected NIH-3T3 cells, read-out: M4 pEC50 (converted)) was 31.6 nM. Besides, the IC50 in data set [1] was 794 nM. Moreover, the spontaneous locomotor activity entry in the data set with mice [2] is “reduction of spontaneous locomotor activity”. Moreover, the amphetamine-induced hyperactivity entry with mice [3] was “reduction of amphetamine-induced hyperactivity”. Moreover, in the data set on mice [4], the scopolamine-induced hyperactivity result is “reduction of scopolamine-induced hyperactivity”. The MK-801-induced hyperactivity entry with mice [5] is “reduction of MK-801-induced hyperactivity”. The induction of catalepsy result with mice [6] (10 mg/kg i.p.) is reported as “failed to induce catalepsy”.
In the case of `CCCCC1CCN(CCCn2c(=O)oc3cccc(C)c32)CC1` [Compound 86KK25-a, 3-[3-(4-butylpiperidin-1-yl]propyl)-4-methyl-3H-benzooxazol-2-one], at M1 muscarinic receptor, the Emax stood at 73% and the EC50 was 100 nM. The Emax at M4 muscarinic receptor (setting [8]) turned out to be 36%. The IC50 in data set [1] was 631 nM.
In the same order, the values of `CCCCC1CC2CCC(C1)N2CCCn1c(=O)sc2ccccc21` (centres unmarked) [Compound 97KS96-2, 3-[3-(3-Butyl-8-aza-bicyclo[3.2.1]oct-8-yl)-propyl]-3H-benzothiazol-2-one] are 63%, 50.1 nM, 50% and 100 nM.
Take `CCCCCCOc1nsnc1C1=CCCN(C)C1` [Xanomeline]: in the data set with dopamine receptors, the “affinity for dopamine receptors” value is listed as “little or no affinity for dopamine receptors”.
For `O=C(CCCN1CCC(O)(c2ccc(Cl)cc2)CC1)c1ccc(F)cc1` [haloperidol, reference compound], in the data set with mice [6] (haloperidol 1 mg/kg i.p.), the induction of catalepsy result is on record as “unlike haloperidol”.
As for `Nc1c2c(nc3ccccc13)CCCC2` [tacrine], the “patients with elevated liver transaminases” value in data set [7] is “about 30%”.
